Results taken from PMC6556873, “Rapid Covalent-Probe Discovery by Electrophile-Fragment Screening” (Journal of the American Chemical Society, 2019).
Where two headings read alike, the source gives them in different places.

Key:
[1] = in vitro; design: species or system HB2, HEK293; conditions: human, ccd841 cells
[2] = target: T1, BSA (Bos taurus, UniProt P02769); design: Intact protein LC/MS covalent labelling, fragments in pools of five, 200 uM each, 4 °C; conditions: 24 h, 4 °C, pool of five; 200 µM; covalent
T1 construct: gene ALB

[3] = target: T2, NUDT7 (Homo sapiens, UniProt P0C024); design: Intact protein LC/MS covalent labelling, fragments in pools of five, 200 uM each, 4 °C; conditions: 24 h, 4 °C, pool of five; 200 µM; covalent
T2 construct: residues 14-235, E. coli, pNIC28-Bsa4, N-terminal His6 tag removed by TEV, construct 26672 Da

[4] = target: T3, OTUB2 (OTUB2A) (Homo sapiens, UniProt Q96DC9); design: Intact protein LC/MS covalent labelling, fragments in pools of five, 200 uM each, 4 °C; conditions: 24 h, 4 °C, pool of five; 200 µM; covalent
T3 construct: full length residues 1-234, E. coli BL21(DE3)-R3, His tag removed by TEV, construct 27312 Da
T3 sequence (Q96DC9 1-234): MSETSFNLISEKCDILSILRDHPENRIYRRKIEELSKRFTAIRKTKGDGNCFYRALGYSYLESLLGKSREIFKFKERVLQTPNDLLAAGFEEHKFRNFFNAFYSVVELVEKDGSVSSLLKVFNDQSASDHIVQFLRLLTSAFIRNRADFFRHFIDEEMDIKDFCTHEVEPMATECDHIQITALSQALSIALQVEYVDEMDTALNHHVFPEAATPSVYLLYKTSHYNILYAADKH

[5] = target: T4, PCAF (Homo sapiens, UniProt Q92831); design: Intact protein LC/MS covalent labelling, fragments in pools of five, 200 uM each, 4 °C; conditions: 24 h, 4 °C, pool of five; 200 µM; covalent
T4 construct: gene KAT2B

[6] = in vitro; design: species or system CCD841, HEK293; conditions: human, hb2 cells, read-out: HB-2 Cells Viability (%)
[7] = in vitro; design: species or system HB2, CCD841; conditions: human, hek293 cells

T2 sequence (P0C024 14-235): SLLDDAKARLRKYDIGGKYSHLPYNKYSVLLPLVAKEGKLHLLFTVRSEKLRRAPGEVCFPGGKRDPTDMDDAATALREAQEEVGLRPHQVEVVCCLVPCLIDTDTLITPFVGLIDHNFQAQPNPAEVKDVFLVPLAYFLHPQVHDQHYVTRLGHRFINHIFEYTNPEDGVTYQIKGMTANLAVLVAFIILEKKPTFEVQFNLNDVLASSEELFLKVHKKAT
T1 sequence (P02769 whole entry, the tested form may be a part): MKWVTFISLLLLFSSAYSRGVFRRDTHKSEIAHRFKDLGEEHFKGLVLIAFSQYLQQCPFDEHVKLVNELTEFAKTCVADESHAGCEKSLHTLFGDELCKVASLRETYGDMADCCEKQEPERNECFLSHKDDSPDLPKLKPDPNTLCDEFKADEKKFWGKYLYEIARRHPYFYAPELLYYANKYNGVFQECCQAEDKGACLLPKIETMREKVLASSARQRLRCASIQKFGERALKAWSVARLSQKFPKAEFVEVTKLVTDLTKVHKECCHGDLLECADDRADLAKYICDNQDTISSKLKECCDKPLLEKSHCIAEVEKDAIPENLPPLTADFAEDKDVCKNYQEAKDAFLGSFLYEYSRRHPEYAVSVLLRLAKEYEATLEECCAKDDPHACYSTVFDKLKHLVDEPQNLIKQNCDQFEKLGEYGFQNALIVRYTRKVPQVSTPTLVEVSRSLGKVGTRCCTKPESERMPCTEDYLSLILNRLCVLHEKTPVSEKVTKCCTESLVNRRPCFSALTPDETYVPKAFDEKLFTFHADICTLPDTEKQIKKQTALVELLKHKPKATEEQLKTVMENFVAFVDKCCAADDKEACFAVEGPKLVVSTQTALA
T4 sequence (Q92831 whole entry, the tested form may be a part): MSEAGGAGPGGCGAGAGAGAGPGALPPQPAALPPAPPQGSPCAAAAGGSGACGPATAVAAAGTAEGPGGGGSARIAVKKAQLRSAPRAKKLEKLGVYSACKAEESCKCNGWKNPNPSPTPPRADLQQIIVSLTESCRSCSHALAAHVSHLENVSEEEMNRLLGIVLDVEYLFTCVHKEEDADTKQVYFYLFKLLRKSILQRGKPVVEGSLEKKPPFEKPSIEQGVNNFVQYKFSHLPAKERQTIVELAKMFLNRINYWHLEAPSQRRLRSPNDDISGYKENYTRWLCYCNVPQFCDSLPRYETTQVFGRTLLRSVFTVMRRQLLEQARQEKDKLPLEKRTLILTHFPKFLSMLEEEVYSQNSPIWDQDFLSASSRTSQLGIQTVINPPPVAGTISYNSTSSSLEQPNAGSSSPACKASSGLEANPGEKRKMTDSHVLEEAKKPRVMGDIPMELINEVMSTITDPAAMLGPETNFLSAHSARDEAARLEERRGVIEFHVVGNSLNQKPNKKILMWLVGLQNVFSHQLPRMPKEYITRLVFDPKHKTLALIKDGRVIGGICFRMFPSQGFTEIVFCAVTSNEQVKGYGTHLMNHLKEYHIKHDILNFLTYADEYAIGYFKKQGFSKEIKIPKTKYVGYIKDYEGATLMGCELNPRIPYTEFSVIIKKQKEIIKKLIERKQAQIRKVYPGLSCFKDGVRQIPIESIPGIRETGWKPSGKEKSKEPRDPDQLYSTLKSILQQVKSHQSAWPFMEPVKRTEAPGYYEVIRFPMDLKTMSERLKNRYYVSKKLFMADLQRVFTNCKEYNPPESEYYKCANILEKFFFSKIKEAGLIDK

Row | Compound | BSA [2] | NUDT7 [3] | OTUB2 [4] | PCAF [5] | viability at 48 h, 10 µM [1] [%] | viability at 48 h, 10 µM [6] [%] | viability at 48 h, 10 µM [7] [%]
1 | Cc1ccc(C)c(S(=O)(=O)N2CCN(C(=O)CCl)CC2)c1 [PCM-0102353] | 0 | 0.19 | 0.06 | 0 | 37.7 | 2.1 | 3.2
2 | O=C(CCl)NCC1CCCO1 (centres unmarked) [PCM-0102356] | 0 | 0 | 0.05 | 0 | 104 | 91.4 | 102
3 | Cl.O=C(CCl)N1CCN(c2ccc(O)cc2)CC1 [PCM-0102357] | 0 | 0 | 0 | 0 | 76.7 | 31 | 12.7
4 | CN(C(=O)CCl)C1(c2ccccc2Cl)CCCCC1=O (centres unmarked) [PCM-0102359] | 0 | 0 | 0 | 0 | 104 | 85.2 | 87.5
5 | O=C(CCl)NC(=O)NC12CC3CC(CC(C3)C1)C2 [PCM-0102360] | 0 | 0 | 0.12 | 0 | 73.7 | 3.1 | 46.7
6 | O=C(CCl)N1CCN(S(=O)(=O)c2ccc(F)c(F)c2)CC1 [PCM-0102361] | 0 | 0 | 0 | 0 | 48.1 | 2.5 | 5.4
7 | O=C1CN(C(=O)CCl)c2ccccc2N1 [PCM-0102362] | 0 | 0 | 0 | 0 | 92.6 | 79.8 | 61.4
8 | O=C1CC(C(F)(F)F)N(C(=O)CCl)c2ccccc2N1 (centres unmarked) [PCM-0102363] | 0.1 | 0.28 | 0 | 0 | 74.6 | 59.3 | 40.4
9 | O=C(CCl)N1CCCCCCC1 [PCM-0102377] | 0 | 0 | 0 | 0 | 82.1 | 36.7 | 43.5
10 | O=C(CCl)N1CCN(c2ncc(C(F)(F)F)cc2Cl)CC1 [PCM-0102378] | 0 | 0.14 | 0.05 | 0 | 2.9 | 1.8 | 1.8
11 | Cc1ccc(S(=O)(=O)N2CCN(C(=O)CCl)CC2)cc1C [PCM-0102379] | 0 | 0.1 | 0 | 0 | 22.6 | 1.8 | 2.7
12 | O=C(CCl)N1N=C(c2ccco2)CC1c1ccco1 (centres unmarked) [PCM-0102380] | 0 | 0.54 | 0 | 0 | 63.4 | 55.7 | 40.4
13 | N#CC(c1ccccc1)N1CCN(C(=O)CCl)CC1 (centres unmarked) [PCM-0102381] | 0 | 0.11 | 0 | 0 | 66.2 | 46.7 | 31.9
14 | C=CC(=O)Nc1ccc(F)c(F)c1 [PCM-0102385] | 0 | 0 | 0 | 0 | 112 | 104 | 66.1
15 | Cl.O=C(CCl)N1CCN(Cc2ccccc2F)CC1 [PCM-0102387] | 0 | 0 | 0.32 | 0 | 67.2 | 24 | 35.1
16 | N#Cc1ccccc1S(=O)(=O)N1CCN(C(=O)CCl)CC1 [PCM-0102395] | 0 | 0.28 | 0 | 0 | 62.6 | 11.2 | 9.7

Continued, in another order:

Row | BSA [2] | NUDT7 [3] | OTUB2 [4] | PCAF [5] | Compound | viability at 48 h, 10 µM [1] [%] | viability at 48 h, 10 µM [6] [%] | viability at 48 h, 10 µM [7] [%]
17 | 0 | 0.31 | 0.47 | 0 | CC(NC(=O)CCl)c1ccc2ccccc2c1 (centres unmarked) [PCM-0102350] | 70.6 | 66 | 58.5
18 | 0 | 0 | 0 | 0 | Cc1noc(NC(=O)CCl)n1 [PCM-0102351] | 94.9 | 103 | 119
19 | 0 | 0 | 0 | 0 | Cc1cc(C)c(NC(=O)CCl)c(C)c1 [PCM-0102352] | 78.5 | 84.2 | 72.9
20 | 0 | 0 | 0 | 0 | Cc1ccc(Cl)cc1NC(=O)CCl [PCM-0102354] | 44.6 | 16.3 | 9.3
21 | 0 | 0 | 0 | 0 | Cc1cccc(C(C)C)c1NC(=O)CCl [PCM-0102358] | 89.3 | 102 | 76.5
22 | 0 | 0.09 | 0 | 0 | O=C(CCl)Nc1cccc(F)c1 [PCM-0102364] | 45.7 | 25 | 5.9
23 | 0 | 0.12 | 0 | 0 | COC(=O)c1sccc1NC(=O)CCl [PCM-0102367] | 85.5 | 75 | 54
24 | 0 | 0 | 0 | 0 | CCc1ccccc1NC(=O)CCl [PCM-0102369] | 76.1 | 78.3 | 56.7
25 | 0 | 0 | 0 | 0 | O=C(CCl)NC(=O)Nc1ccccc1F [PCM-0102376] | 80.5 | 63.5 | 67.8
26 | 0 | 0 | 0.27 | 0 | O=C(CCl)NNC(=O)C1COc2ccccc2O1 (centres unmarked) [PCM-0102384] | 70.3 | 86.6 | 90.7
27 | 0 | 0 | 0.56 | 0 | O=C(CCl)Nc1cc2[nH]c(=O)[nH]c2cc1Br [PCM-0102388] | 38.6 | 11.4 | 1.2
28 | 0 | 0 | 0 | 0 | O=C(CCl)NCC(=O)N1CCCC1 [PCM-0102391] | 101 | 106 | 116
29 | 0 | 0.16 | 0.21 | 0 | O=C(CCl)Nc1ccc([N+](=O)[O-])cc1Cl [PCM-0102392] | 53.9 | 43.5 | 43.8
30 | 0 | 0.36 | 0 | 0 | O=C(CCl)N1CCCC1c1cccs1 (centres unmarked) [PCM-0102393] | 39 | 7.5 | 2.5
31 | 0 | 0 | 0.22 | 0 | Cc1cc(C)cc(NC(=O)CCl)c1 [PCM-0102394] | 69.9 | 31.4 | 22.3
32 | 0 | 0.12 | 0.54 | 0 | O=C(CCl)Nc1cccc2ccccc12 [PCM-0102396] | 55.8 | 16.3 | 2.4
